Tests used:
[1] = Hepatocyte stability assay, MH; format: in vitro ADME; conditions: mouse, cryopreserved hepatocytes, 1 μM test compound, 0.5 million cells/mL hepatocytes, 37° C., 0-180 min, read-out: MH +/− NADPH: Clint (μL/min/million cells)
Excerpt: Hepatocyte Stability Assay: The […] of in vitro intrinsic clearance (Clint) for drug candidates in the early discovery stage is common practice in the pharmaceutical industry. The Clint values of drug candidates can help to confirm whether metabolism is the main clearance pathway when it is compared with the total body clearance in vivo. Hepatocytes are among the routinely used in vitro systems for measuring clearance. Hepatocytes have been reported to retain most of the phase I and phase II metabolic activities, and therefore, it is a useful tool to estimate the intrinsic clearance for potential drug candidates.
Metabolic stability of testing compound were be evaluated using human and mouse hepatocytes and can also be use rat, mouse, or other animal hepatocytes to predict intrinsic clearance. Cryopreserved hepatocytes were removed from the liquid nitrogen tank and thawed in a 37° C. water bath. As soon as the cells pulled away from the vial wall, they were decanted into 48 ml of warm HT medium. Cells were centrifuged for four minutes at 420 rpm (50 g). After removing the supernatant, pellet was re-suspended in warm DMEM medium. Cell density was counted by a hemacytometer.
The assay was carried out in 96-well microtiter plates. Compounds were incubated for 0, 60, 120, and 180 minutes at 37° C. with hepatocytes. Reaction mixtures (50 μL) contained a final concentration of 1 μM test compound, 0.5 million cells/mL hepatocytes in the DMEM medium. At each of the time points (for example, 0, 1, 2, and 3 hours), 200 μL of quench solution (100% acetonitrile with 0.1% formic acid) with internal standard was transferred to each well. Midazolam was included as a positive control to verify assay performance. Plates were sealed and centrifuged at 4° C. for 15 minutes at 4000 rpm. The supernatant is transferred to fresh plates for LC/MS/MS analysis.
Summarized conditions (customizable): [Compound]=[…], Positive control: midazolam and/or naloxone, [Hepatocyte]=0.5 million cells/Ml, time=0, 60, 120, and 180 m t=37° C.
(§1) All samples were analyzed on LC/MS/MS using an ABSciex API 4000 instrument, coupled to a Shimadzu LC-20AD LC Pump system. Analytical samples were separated using a Waters Atlantis T3 dC18 reverse phase HPLC column (20 mm×2.1 mm) at a flow rate of 0.5 mL/min. The mobile phase consisted of 0.1% formic acid in water (solvent A) and 0.1% formic acid in 100% acetonitrile (solvent B).
The extent of metabolism was calculated as the disappearance of the test compound, compared to the 0-min control reaction incubations. Initial rates were calculated for the compound concentration and used to determine t½ values and subsequently, the intrinsic clearance, Clint. Clint=(0.693)(1/t½ (min))(mL incubation/million cells)

[2] = Microsomal stability assay, HLM; format: in vitro ADME; conditions: human, pH 7.4, 1 μM test compound, 0.5 mg/mL liver microsomes protein, 37° C., 0-60 min, read-out: HLM +/− NADPH: Clint (μL/min/mg protein)
Excerpt: (§2) Microsomal Stability Assay: Microsomal stability assay is a widely used in vitro model to characterize the metabolic conversion by phase I enzymes, such as cytochrome P450 (CYP) enzymes. Since metabolism is known to be highly variable in different species, microsomal stability assay is commonly run in multiple species. Metabolic stability of testing compound can be evaluated using human, rat, mouse, or other animal liver or intestine microsomes to predict intrinsic clearance.
(§3) The assay was carried out in 96-well microtiter plates at 37° C. Reaction mixtures (25 μL) contained a final concentration of 1 μM test compound, 0.5 mg/mL liver microsomes protein, and 1 mM NADPH and/or 1 mM UDPGA (with alamethicin) in 100 mM potassium phosphate, pH 7.4 buffer with 3 mM MgCl2. The incubation was done with N=1, but duplicate incubation at each time point can be prepared if necessary. At each of the time points (for example, 0, 15, 30, and 60 minutes), 150 μL of quench solution (100% acetonitrile with 0.1% formic acid) with internal standard was transferred to each well. Besides the zero minute controls, mixtures containing the same components except the NADPH can also be prepared as the negative control. Verapamil was included as a positive control to verify assay performance. Plates were sealed, vortexed, and centrifuged at 4° C. for 15 minutes at 4000 rpm. The supernatant is transferred to fresh plates for LC/MS/MS analysis.
(§4) Summarized conditions: [Compound]=1 μM, [LM]=0.5 mg/mL, [NADPH]=1 mM and/or [UDPGA]=1 mM, Buffer=100 mM Potassium Phosphate, pH 7.4 with 3 mM MgCl2, Time=0, 15, 30, and 60 min, and Temperature=37° C.
as §1, with “AB Sciex” for “ABSciex”
(§5) The extent of metabolism is calculated as the disappearance of the test compound, compared to the 0-min time incubation. Initial rates are calculated for the compound concentration and used to determine half-life (t½) values and subsequently, the intrinsic clearance (Clint). Clint=(0.693)(1/t½ (min))(g of liver/kg of body weight)(mL incubation/mg of microsomal protein)(45 mg of microsomal protein/g of liver weight)

LNCaP ARE-Luc = experiment: Luciferase assay in LNCaP cell lysates (LNCaP ARE-Luc); format: cell-based; conditions: Homo sapiens, Firefly Luciferase Assay System, read-out: LNCaP ARE-Luc % inhibition IC50 Ranges
Experimental: Lysates were thawed on ice then collected into V-bottom 96-well tissue culture plates. Lysates were centrifuged at 4° C. for 5 minutes at 4000 rpm. To measure luminescence of LNCaP cell lysates the Firefly Luciferase Assay System (Promega) was employed, according to manufacturer's protocol. Relative luminescence units (RLU) in cell lysates were detected for 10 seconds using Promega GoMax-Multi Detection Luminometer (Promega).
Statistical analyses were performed using GraphPad Prism (Version 6.01 for Windows; La Jolla, Calif., USA). Comparisons between treatment and control groups were compared using Two-Way ANOVA with post-hoc Dunnett's and Tukey's tests. Differences were considered statistically significant at P values less than 0.05. Densitometric quantification of relative AR levels was determined by Image.

[3] = Microsomal stability assay, MLM; format: in vitro ADME; conditions: mouse, pH 7.4, 1 μM test compound, 0.5 mg/mL liver microsomes protein, 37° C., 0-60 min, read-out: MLM +/− NADPH: Clint (μL/min/mg protein)
Excerpt: as §2, §3, §4
as §1, with “AB Sciex” for “ABSciex”
as §5

SMILES | hepatocyte CLint at 1 μM [1] | microsomal CLint at 1 μM [2] | IC50 (LNCaP ARE-Luc) | microsomal CLint at 1 μM [3]
CC(C)(c1ccc(OCC(=O)CNS(C)(=O)=O)cc1)c1cc(Cl)c(OCCCBr)c(Cl)c1 [Compound A61] | ≥ 18 µL/min/1e6 cells | ≥ 48 µL/min/mg | 100 to 250 nM | ≥ 48 µL/min/mg
CC(C)(c1ccc(OCC(=O)CNS(C)(=O)=O)cc1)c1cc(Cl)c(OCCCCl)c(Cl)c1 [Compound A31, N-(3-(4-(2-(3,5-dichloro-4-(3-chloropropoxy)phenyl)propan-2-yl)phenoxy)-2-oxopropyl)methanesulfonamide] | ≥ 18 µL/min/1e6 cells | ≥ 48 µL/min/mg | < 100 nM | 
CC(C)(c1ccc(OCC(=O)CS(C)(=O)=O)cc1)c1cc(Cl)c(OCC(O)CCl)c(Cl)c1 (stereo not drawn) [Compound A54] | ≥ 18 µL/min/1e6 cells | ≥ 48 µL/min/mg |  | ≥ 48 µL/min/mg
CC(C)(c1ccc(OCC(=O)CNS(C)(=O)=O)cc1)c1cc(Cl)c(OC[C@H](O)CCl)c(Cl)c1 [A51(S), (S)—N-(3-(4-(2-(3,5-dichloro-4-(3-chloro-2-hydroxypropoxy)phenyl)propan-2-yl)phenoxy)-2-oxopropyl)methanesulfonamide] | ≥ 18 µL/min/1e6 cells | ≥ 48 µL/min/mg | < 100 nM | 
COCC(=O)COc1ccc(Cc2cc(Cl)c(OCC(O)CCl)c(Cl)c2)cc1 (stereo not drawn) [Compound A57] | ≥ 18 µL/min/1e6 cells | ≥ 48 µL/min/mg |  | ≥ 48 µL/min/mg
COCC(=O)COc1ccc(C(C)(C)c2cc(Cl)c(OCC(C)(O)CCl)c(Cl)c2)cc1 (stereo not drawn) [Compound A60] | ≥ 18 µL/min/1e6 cells | ≥ 48 µL/min/mg |  | ≥ 48 µL/min/mg
CC(C)(c1ccc(OCC(=O)CS(C)(=O)=O)cc1)c1cc(Cl)c(OCCCCl)c(Cl)c1 [Compound A55, 1-(4-(2-(3,5-dichloro-4-(3-chloropropoxy)phenyl)propan-2-yl)phenoxy)-3-(methylsulfonyl)propan-2-one] | ≥ 18 µL/min/1e6 cells | ≥ 48 µL/min/mg | ≥ 250 nM | ≥ 48 µL/min/mg
COCC(=O)COc1ccc(C(F)(F)c2cc(Cl)c(OCC(O)CCl)c(Cl)c2)cc1 (stereo not drawn) [Compound A58] | ≥ 18 µL/min/1e6 cells | ≥ 48 µL/min/mg |  | ≥ 48 µL/min/mg
COCC(=O)COc1ccc(C(C)(C)c2cc(Cl)c(OCCCCl)c(Cl)c2)cc1 [Compound A59] | ≥ 18 µL/min/1e6 cells | ≥ 48 µL/min/mg |  | ≥ 48 µL/min/mg
COCC(=O)COc1ccc(C(C)(C)c2cc(Cl)c(OC[C@H](O)CCl)c(Cl)c2)cc1 [A56(S), (S)-1-(4-(2-(3,5-dichloro-4-(3-chloro-2-hydroxypropoxy)phenyl)propan-2-yl)phenoxy)-3-methoxypropan-2-one] | ≥ 18 µL/min/1e6 cells | ≥ 48 µL/min/mg | ≥ 250 nM | ≥ 48 µL/min/mg
